Laboratory results: ChEMBL document CHEMBL1201862, “PubChem BioAssay data set” (2004)
Calls of active or inactive are those of the source.

Experiments:
[1] = YAP1 overexpression rescue of CTGF inhibition – DLD1 cells, RT-qPCR, cherry-pick, mechanism study for YAP1 pathway inhibitor project, dose response (AID 1053127); assay type: functional, cell-based; conditions: DLD-1
[2] = CTGF mRNA reduction in DLD1 cells – cell-based, DLD1 colon cancer, RT-qPCR, cherry-pick, dose response (AID 1053122); assay type: functional; conditions: Cancer cell lines
[3] = IC50 of insulin release inhibition, rat insulinoma INS-1E line, 5 mM glucose, cell-based (AID 1117331); assay type: functional
Paired box protein Pax-8 = Paired box protein Pax-8 (Homo sapiens, UniProt Q06710); test: PAX8 transcriptional activity inhibition in RMG-I – RMG-I cells, luciferase, cherry-pick, dose response (AID 687027); assay type: functional, cell-based;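 also: luciferase reporter driven by Pax8 target thyroperoxidase promoter measured by SteadyGlo luminescence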
[4] = inhibitors acting on PAX2 in cells – cell-based, plate reader, dry powder samples, selectivity assay for PAX8 inhibitor project, dose response (AID 743048); assay type: functional;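 also: HEK293 cells carrying a WT1 promoter luciferase reporter driven by expressed Pax2; potency is for inhibition of Pax2 driven reporter signal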
[5] = PAX8-dependent cell viability loss – plate reader, dry powder, dose response (AID 743049); assay type: functional, cell-based
H9c2 = test: cells; assay type: functional, cell-based; conditions: Rattus norvegicus, H9c2, Myocardium;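 also: confirmatory concentration-response retest of ultra-high-throughput screening hits for modulation of myocardial damage; cell death induced by hydrogen peroxide oxidative stress; compound pretreatment for 60 min then peroxide exposure for 2 h; potency is for protecting the cells against peroxide damage rather than for killing them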
[6] = biological target: NAD-dependent protein deacylase sirtuin-5, mitochondrial (Homo sapiens, UniProt Q9NXA8); test: sirtuin-5 deacylation blockers, concentration series – biochemical, fluorescence imaging, cherry-pick, set 5, dose response (AID 720591);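 also: desuccinylation of succinyl peptide AMC substrate read as fluorescence after trypsin release; potency of inhibitors that lower fluorescence and may act on trypsin instead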
[7] = glucagon-like peptide-1 release potency in STC-1, concentration-response, half-maximal inhibitory concentration in the STC-1 line (AID 1117345); assay type: functional, cell-based
[8] = Potency on glucagon-like peptide 1 release, dose-response in NCI-H716 cell line, half maximal inhibitory concentration (AID 1117344); assay type: functional, cell-based
[9] = growth inhibition of yeast DHODH-expressing 3D7 parasites – SYBR Green, dry powder samples, dose response (AID 1159570); assay type: functional, cell-based;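 also: parasite growth measured after 72 hours of compound exposure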
[10] = toxicity to human HepG2 hepatoma cells – cell-based, plate reader, dry powder samples, cytotoxicity control, dose response (AID 1159569); assay type: functional;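 also: inhibitor potency with signal falling toward the positive control level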
[11] = Dd2 malaria parasite growth inhibition potency – SYBR Green, dry powder samples, dose response (AID 1159566); assay type: functional, cell-based;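 also: potency for growth inhibition with lower SYBR green DNA signal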
[12] = Plasmodium falciparum Dd2 Sybr green parasite growth Measured in Cell-Based and Microorganism Combination System Using Plate Reader - 2153-01_Inhibitor_Dose_DryPowder_Activity_Set3.; assay type: functional
[13] = growth inhibition of PfATP4-mutant resistant parasites – NITD609-resistant line, SYBR Green, dry powder, dose response (AID 1159571); assay type: functional, cell-based;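 also: parasites synchronized at ring stage by sorbitol before testing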
[14] = tested on: Streptococcus sp. 'group A'; test: Streptococcus pyogenes SK(-)GAS viability under kanamycin – luminescence, BacTiterGlo, confirmation, counter-screen for streptokinase expression inhibitor project, dose response (AID 1900); assay type: functional, organism-based
Streptokinase A = biological target: T1, Streptokinase A (Streptococcus pyogenes serotype M1, UniProt P10520); test: viability-normalized secreted streptokinase activity reduction – plasminogen activation absorbance, OD405, dose response (AID 1914); assay type: functional, Streptococcus pyogenes M1 GAS;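 also: secreted streptokinase activity via plasminogen activation per viability signal from cell pellet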
T1 sequence (P10520 whole entry): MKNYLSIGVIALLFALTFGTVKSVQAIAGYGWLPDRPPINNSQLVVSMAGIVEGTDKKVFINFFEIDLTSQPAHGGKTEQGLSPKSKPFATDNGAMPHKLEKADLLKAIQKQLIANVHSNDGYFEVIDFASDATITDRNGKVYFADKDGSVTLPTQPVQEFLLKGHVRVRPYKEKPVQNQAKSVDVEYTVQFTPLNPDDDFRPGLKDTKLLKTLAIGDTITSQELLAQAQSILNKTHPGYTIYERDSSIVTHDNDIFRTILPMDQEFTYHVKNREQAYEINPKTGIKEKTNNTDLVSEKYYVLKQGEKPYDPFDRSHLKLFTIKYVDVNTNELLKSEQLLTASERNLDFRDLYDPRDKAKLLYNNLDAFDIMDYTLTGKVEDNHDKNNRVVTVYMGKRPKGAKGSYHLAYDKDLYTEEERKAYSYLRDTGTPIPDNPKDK

[15] = viability of PTEN-deleted HCT116 cells – cell-based, HCT116 PTEN knockout, dose response (AID 1047); assay type: functional;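 also: HCT116 colon tumor cells with PTEN knocked out; cells exposed to compound for 60 hours before readout; potency for loss of cell viability measured by luminescence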
[16] = viability of HCT116 lacking mutant beta-catenin – cell-based, human colon tumor, dose response (AID 1045); assay type: functional;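 also: HCT116 colon tumor cells with beta catenin knocked out; cells exposed to compound for 60 hours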
Streptococcus = test: GAS UMAA2166 growth inhibition – luminescence, BacTiterGlo, counter-screen for streptokinase expression inhibitor project, dose response (AID 1915); assay type: functional, organism-based;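 also: potency for reduction of bacterial viability or growth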
[17] = Luminescence Cell-Based Dose Retest to Confirm Inhibitors of Cancer Stem Cells. [Related pubchem assays (depositor defined):AID2717, AID2721]; assay type: functional; conditions: Homo sapiens
INS1 = test: INS-1E survival protection against cytokine death – cell-based, luminescence, retest, dose response (AID 449756); assay type: functional; conditions: Rattus norvegicus;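 also: cell death triggered by IL-1 beta plus TNF-alpha plus IFN-gamma mixture; protective hits raise ATP signal compared with cytokine alone wells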
[18] = biological target: Disintegrin and metalloproteinase domain-containing protein 17 (Homo sapiens, UniProt P78536); test: inhibition of ADAM17 substrate cleavage – biochemical, quenched FRET substrate, counter-screen for ADAM10 exosite inhibitor project, dose response (AID 743253)
HEK293 = test: viability loss in HEK293T cells – cell-based, ATP luminescence, cherry-pick samples, cytotoxicity control, dose response (AID 687005); assay type: functional; conditions: Homo sapiens;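 also: cells exposed to compound for 48 hours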
[19] = HEK293 Cytotoxicity Assay Measured in Cell-Based System Using Plate Reader - 7071-01_Inhibitor_Dose_CherryPick_Activity_Set2.; assay type: functional
[20] = P. falciparum Dd2 growth inhibitors, dose response, SYBR Green, cherry-picked samples (AID 1159567); assay type: functional, cell-based
[21] = toxicity to human hepatoma HepG2 cells – cell-based, cherry-picked samples, cytotoxicity control, dose response (AID 1159577); assay type: functional
[22] = blockers of HIV-1 envelope-mediated cell-cell fusion – cherry-pick, dose response (AID 652057); assay type: functional, cell-based

Sequence of NAD-dependent protein deacylase sirtuin-5, mitochondrial (Q9NXA8 whole entry): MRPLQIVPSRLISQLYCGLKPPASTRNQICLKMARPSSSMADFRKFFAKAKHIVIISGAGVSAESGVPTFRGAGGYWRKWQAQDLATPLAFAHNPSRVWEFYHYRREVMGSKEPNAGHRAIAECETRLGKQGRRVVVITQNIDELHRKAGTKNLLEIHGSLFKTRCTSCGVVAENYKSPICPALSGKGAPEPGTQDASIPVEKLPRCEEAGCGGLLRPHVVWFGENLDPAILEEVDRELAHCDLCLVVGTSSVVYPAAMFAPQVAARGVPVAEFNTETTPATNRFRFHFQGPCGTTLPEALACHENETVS
Sequence of Paired box protein Pax-8 (Q06710 whole entry): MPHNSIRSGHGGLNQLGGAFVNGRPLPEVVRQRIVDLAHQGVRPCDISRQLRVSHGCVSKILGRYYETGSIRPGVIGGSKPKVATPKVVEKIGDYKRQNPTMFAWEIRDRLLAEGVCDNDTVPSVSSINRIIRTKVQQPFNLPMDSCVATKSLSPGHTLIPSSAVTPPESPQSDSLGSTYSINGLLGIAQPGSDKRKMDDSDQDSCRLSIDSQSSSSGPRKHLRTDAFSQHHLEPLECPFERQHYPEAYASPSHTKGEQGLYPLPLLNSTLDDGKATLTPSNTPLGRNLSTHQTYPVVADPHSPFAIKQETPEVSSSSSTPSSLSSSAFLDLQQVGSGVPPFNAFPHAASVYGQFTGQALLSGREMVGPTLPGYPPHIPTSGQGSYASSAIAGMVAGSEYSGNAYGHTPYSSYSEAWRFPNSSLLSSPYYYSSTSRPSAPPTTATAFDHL
Sequence of Disintegrin and metalloproteinase domain-containing protein 17 (P78536 whole entry, the tested form may be a part): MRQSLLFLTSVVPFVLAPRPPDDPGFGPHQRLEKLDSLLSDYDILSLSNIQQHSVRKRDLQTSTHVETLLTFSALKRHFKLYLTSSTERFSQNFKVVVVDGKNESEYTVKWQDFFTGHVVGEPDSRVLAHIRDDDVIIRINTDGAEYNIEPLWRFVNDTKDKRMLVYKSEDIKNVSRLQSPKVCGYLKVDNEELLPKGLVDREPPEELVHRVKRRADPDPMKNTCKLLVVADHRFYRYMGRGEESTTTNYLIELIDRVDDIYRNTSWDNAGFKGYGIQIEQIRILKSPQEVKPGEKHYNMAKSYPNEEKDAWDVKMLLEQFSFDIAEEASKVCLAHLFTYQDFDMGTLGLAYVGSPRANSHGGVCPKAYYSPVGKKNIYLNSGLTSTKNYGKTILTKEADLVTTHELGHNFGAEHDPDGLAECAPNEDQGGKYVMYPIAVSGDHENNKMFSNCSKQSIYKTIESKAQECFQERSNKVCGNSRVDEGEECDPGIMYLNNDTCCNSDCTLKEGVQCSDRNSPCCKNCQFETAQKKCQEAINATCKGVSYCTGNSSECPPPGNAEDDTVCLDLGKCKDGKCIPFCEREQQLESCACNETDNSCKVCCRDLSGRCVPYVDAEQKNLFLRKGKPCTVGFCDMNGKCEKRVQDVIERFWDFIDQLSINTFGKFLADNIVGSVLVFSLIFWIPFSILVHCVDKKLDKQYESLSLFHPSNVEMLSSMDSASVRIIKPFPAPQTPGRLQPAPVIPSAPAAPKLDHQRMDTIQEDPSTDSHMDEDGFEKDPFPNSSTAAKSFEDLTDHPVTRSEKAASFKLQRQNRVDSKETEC

COc1ccccc1NC(=O)N1CCCCN2[C@H](CO)[C@H](c3ccc(-c4cccc(C#N)c4)cc3)[C@@H]2C1
AC50 [1]: 11.6 µM (active)
AC50 [2]: 1.44 µM (active)

COc1ccc(CN(CCN(C)C)c2ccccn2)cc1 [PYRILAMINE]
IC50 [3]: 15.4 µM (inactive)

C[C@H](CO)N1C[C@H](C)[C@H](CN(C)C(=O)Nc2ccc(-c3cccs3)cc2)OCc2cnnn2CCCC1=O
AC50 (Paired box protein Pax-8): < 0.26 µM (active)
AC50 [4]: > 70 µM (inactive)
AC50 [5]: 11.5 µM (active)

COc1ccc(S(=O)(=O)N2CCOCC2)cc1NC(=O)c1cccc2c(=O)c(C)c(-c3ccccc3)oc12
IC50 (H9c2): > 79 µM (inactive)
AC50 [6]: > 30 µM (inactive)

CN[C@@H]1[C@H](O)[C@H](NC)[C@H]2O[C@@]3(O)C(=O)C[C@@H](C)O[C@H]3O[C@@H]2[C@H]1O
IC50 [7]: > 40 µM (inactive)
IC50 [8]: > 40 µM (inactive)

COc1ccccc1C#Cc1ccc([C@H]2[C@@H](CO)N(C(=O)C3CC3)[C@H]2C#N)cc1
AC50 [9]: 2.22 µM (active)
AC50 [10]: > 100 µM (inactive)
AC50 [11]: 0.457 µM (active)
AC50 [12]: 2.28 µM (active)
AC50 [13]: 1.09 µM (active)

COc1ccc(C(=O)NCC(=O)OCc2ccccc2F)cc1
AC50 [6]: > 30 µM (inactive)

Cc1ccc(NS(=O)(=O)c2ccc(Cl)c(NC(=S)NC(=O)C3CCCCC3)c2)cc1Cl
EC50 [14]: 0.756 µM (active)
EC50 (Streptokinase A): 2.48 µM (active)
EC50 [15]: 19.8 µM (active)
EC50 [16]: 20.8 µM (active)
EC50 (Streptococcus): 4.65 µM (active)
AC50 [17]: 3.05 µM (active)
AC50 (INS1): 10.2 µM (active)
IC50 [18]: > 69.5 µM (inactive)

C[C@H]1CCCCO[C@H](CN(C)S(=O)(=O)c2ccc(Cl)cc2)[C@@H](C)CN([C@@H](C)CO)C(=O)c2cc(NS(=O)(=O)c3cccs3)ccc2O1
AC50 (HEK293): 15.6 µM (active)
AC50 [19]: 15.6 µM (active)

N#C[C@@H]1[C@H](c2ccc(-c3cccc(F)c3)cc2)[C@@H](CO)N1C(=O)NC1CCCC1
AC50 [9]: 13 µM (active)
AC50 [10]: > 100 µM (inactive)
AC50 [20]: 0.483 µM (active)
AC50 [11]: 0.117 µM (active)
AC50 [12]: 0.326 µM (active)
AC50 [13]: 0.239 µM (active)

O=C(Nc1ccc(F)cc1)N1C[C@H]2[C@@H](c3ccccc31)[C@H](CO)N2C(=O)c1ccccc1F
AC50 [20]: 4.75 µM (active)
AC50 [21]: > 39 µM (inactive)

CCNC(=O)c1cc2c(c(-c3cccc(-c4ccccc4F)c3)n1)[C@@H](CCO)N(C(=O)CC1CC1)C2
AC50 [1]: 11 µM (active)
AC50 [20]: 5.87 µM (active)

COc1ccc2c3c(n(C)c2c1)[C@@H](CO)N(C(=O)C1CCOCC1)CC31CCN(Cc2cccc(F)c2)CC1
AC50 [22]: 0.629 µM (active)
AC50 [20]: 6.52 µM (active)
AC50 [21]: 10.8 µM (active)

O=C(CN(c1ccc(F)cc1)S(=O)(=O)c1ccccc1)NC1CCCCCC1
AC50 (HEK293): 33.4 µM (active)
AC50 [19]: 33.4 µM (active)
